Results from ChEMBL document CHEMBL3232984, “Synthesis and tripanocidal activity of ferrocenyl and benzyl diamines against Trypanosoma brucei and Trypanosoma cruzi” (Bioorg Med Chem Lett, 2014).

Columns and labels:
Trypanosoma brucei [1] = assay: Antimicrobial activity against procyclic stage of Trypanosoma brucei 427 after 24 hrs by MTT assay; format: functional, organism-based; conditions: Trypanosoma brucei, 427, 24 h
[2] = Safety index, ratio of IC50 for human HepG2 cells to IC50 for epimastigote stage of Trypanosoma cruzi Y; format: toxicity, cell-based; conditions: HepG2 cells versus epimastigote stage of Trypanosoma cruzi Y, read-out: Ratio IC50
Trypanosoma cruzi = assay: Antimicrobial activity against epimastigote stage of Trypanosoma cruzi Y after 72 hrs by MTT assay; format: functional, organism-based
[3] = Safety index, ratio of IC50 for human HepG2 cells to IC50 for […] 29-13; format: toxicity, cell-based; conditions: read-out: Ratio IC50
Trypanosoma brucei [4] = assay: Antimicrobial activity against […] 29-13 after 24 hrs by MTT assay; format: functional, organism-based; conditions: 29-13, 24 h
HepG2 = assay: Cytotoxicity against human HepG2 cells by MTT assay; format: cell-based
[5] = Safety index, ratio of IC50 for human HepG2 cells to IC50 for procyclic stage of Trypanosoma brucei 427; format: toxicity, cell-based; conditions: HepG2 cells versus procyclic stage of Trypanosoma brucei 427, read-out: Ratio IC50

Cl.Cl.c1ccc(CNCCNCc2ccccc2)cc1
IC50 (Trypanosoma brucei [1]): 11.1 µM
selectivity ratio [2]: 1.4
IC50 (Trypanosoma cruzi): 160 µM
selectivity ratio [3]: 22.4
IC50 (Trypanosoma brucei [4]): 9.99 µM
IC50 (HepG2): 224 µM
selectivity ratio [5]: 20.2

COc1ccc(CNCCNCc2ccc(OC)cc2)cc1
IC50 (Trypanosoma brucei [1]): 8.25 µM
selectivity ratio [2]: 90.9
IC50 (Trypanosoma cruzi): 10.9 µM
selectivity ratio [3]: 115
IC50 (Trypanosoma brucei [4]): 8.63 µM
IC50 (HepG2): 991 µM
selectivity ratio [5]: 120

Oc1ccccc1CNCCNCc1ccccc1O
IC50 (Trypanosoma brucei [1]): 4.61 µM
selectivity ratio [2]: 1.36
IC50 (Trypanosoma cruzi): 109 µM
selectivity ratio [3]: 28.7
IC50 (Trypanosoma brucei [4]): 5.16 µM
IC50 (HepG2): 148 µM
selectivity ratio [5]: 32.1

Clc1ccc(CNCCNCc2ccc(Cl)cc2Cl)c(Cl)c1
IC50 (Trypanosoma brucei [1]): 12.3 µM
selectivity ratio [2]: 5.45
IC50 (Trypanosoma cruzi): 51.4 µM
selectivity ratio [3]: 16.7
IC50 (Trypanosoma brucei [4]): 16.8 µM
IC50 (HepG2): 281 µM
selectivity ratio [5]: 22.7

O=[N+]([O-])c1ccc(CNCCNCc2ccc([N+](=O)[O-])cc2)cc1
IC50 (Trypanosoma brucei [1]): 36.6 µM
selectivity ratio [2]: 4.84
IC50 (Trypanosoma cruzi): 122 µM
selectivity ratio [3]: 30.7
IC50 (Trypanosoma brucei [4]): 19.2 µM
IC50 (HepG2): 590 µM
selectivity ratio [5]: 16.1

O=C(Cn1ccnc1[N+](=O)[O-])NCc1ccccc1 [BENZNIDAZOLE]
IC50 (Trypanosoma brucei [1]): 208 µM
selectivity ratio [2]: 62.5
IC50 (Trypanosoma cruzi): 34 µM
selectivity ratio [3]: 14.2
IC50 (Trypanosoma brucei [4]): 150 µM
IC50 (HepG2): 2130 µM
selectivity ratio [5]: 10.2

N=C(N)c1ccc(OCCCCCOc2ccc(C(=N)N)cc2)cc1 [PENTAMIDINE]
IC50 (Trypanosoma brucei [1]): 6.43 µM
selectivity ratio [2]: 34.9
IC50 (Trypanosoma cruzi): 4.58 µM
selectivity ratio [3]: 24.8
IC50 (Trypanosoma brucei [4]): 6.43 µM
IC50 (HepG2): 160 µM
selectivity ratio [5]: 24.8
